Results on 3 molecules are retold here after paper PMC10860144, “Exploring the Dispersion and Electrostatic Components in Arene–Arene Interactions between Ligands and G4 DNA to Develop G4-Ligands” (Journal of Medicinal Chemistry, 2024).

The target in one series is Pu24T c-MYC G4 structure. The series can be described thus: Kd for binding to the Pu24T c-MYC G4 structure (supplementary CSV). Also on record: species or system human. Here is the method: 5′-Cy5 labeled G4 DNAs for this study were purchased from Eurofins Genomics. Stock solutions were prepared in water at 100 μM concentration. The sequences used are listed in Supporting Information Table S1. The G4 DNA sequences were folded in KCl buffer (10 mM phosphate, 100 mM KCl, pH 7.4) by heating at 95 °C for 5 min and then cooling to room temperature. All the experiments were performed in 10 mM phosphate pH 7.4, 100 mM KCl, and 0.05% Tween20. The labeled DNA concentration is held constant at 25 nM, and ligand concentration is varied depending on ligands Kd (16 1:3 dilutions). The samples were loaded into standard MST graded glass capillaries and initial fluorescence intensity of the capillary was measured using Monolith NT.115 (Nano Temper, Germany) with 20% LED power. The change in fluorescence with ligand’s concentrations were plotted in Excel and fitted through nonlinear equation to obtain the binding constants.
The Supporting Information is available free of charge at https://pubs.acs.org/doi/10.1021/acs.jmedchem.3c02127. • Experimental procedures and data; assay data, computational results, and all cell data; NMR (^1H and ^13C) spectra for all compounds (with the exception of a few intermediates); and HPLC UV traces for the final compounds (PDF) • Molecular formula strings and Kd values for binding to the Pu24T c-MYC G4 structure (CSV)

Another series deals with c-MYC Pu22 G4 DNA. The series can be described thus: FRET melting assay, c-MYC Pu22 G4 DNA. Format: binding, human. The conditions noted are these: c-MYC Pu22 G4 DNA 0.2 μM; for increased thermal stability (ΔTm): 40 equivalences of added compound. The text has this: The synthesized compounds (2–11) were first analyzed using a Förster resonance energy transfer (FRET) assay (Figure 2A). This assay measures the compounds’ ability to affect the thermal stability of fluorescently labeled DNA, in this case, the c-MYC Pu22 G4 DNA (Table S1). […] The addition of one methyl group to the quinazoline core (3) provides almost twice as strong thermal stability compared to 2. The addition of a second methyl group (4) further increased stabilization, albeit modestly (by 0.5 °C). This slight increase between 3 and 4 could stem from the suboptimal positioning of the added methyl substituent in relation to the guanines on the G4 surface, compared to other positions on the quinazoline ring. […] Furthermore, the methyl-substituted (4) and the methoxy-substituted (6) display a similar G4 stabilization despite the strong electrostatic character of the methoxy substituent compared to the neutral methyl group, which further supports that these interactions are dispersion-driven. This conclusion is further supported by the fact that the replacement of the methoxy group in 6 with chlorine in 7 results in a very similar stabilization as 3, 4, and 6.
Synthetic labeled oligonucleotides for the FRET study were purchased from Eurofins Genomics. Stock solutions were prepared in MQ-water at 100 μM concentration. The sequences used are listed in Supporting Information Table S1. All the oligonucleotides except Pu22 were prefolded in 10 mM lithium cacodylate buffer (pH 7.4), with 10 mM KCl and 90 mM LiCl by heating for 10 min at 95 °C and then cooling in fridge for at least 1 h. Pu22 was folded in 10 mM lithium cacodylate buffer (pH 7.4), with 2 mM KCl and 98 mM LiCl.
The FRET occurs between two dyes (5′-FAM as donor and 3′-TAMRA as acceptor) linked at both extremities of a DNA oligonucleotide. When the oligonucleotides are folded into G4 structures, the donor and acceptor are in proximity, which results in an energy transfer from the donor to the acceptor. This process can be detected by a reduction in the fluorescence emission of the donor. Fluorescence emission of the donor is recovered when the temperature increment triggers the thermal denaturation of the G4 structure. The experiments were performed in a Bio-Rad CFX96 real-time PCR device at temperatures from 10 to 95 °C at 1.5 °C/m heating rate using a 492 nm excitation wavelength and a 516 nm detection wavelength in 96-well plates. […] The stabilization (ΔTm) is calculated from comparison of Tm of the fluorescently labeled oligonucleotide in the presence or absence of the ligand. […]
The fluorescence resonance energy transfer (FRET) occurs between two dyes (5'-FAM as donor and 3'- TAMRA as acceptor) linked at both extremities of a DNA oligonucleotide. […]

The nature of another series: logD at pH 7.4. In kind it is physicochemical. Here is the method: Physicochemical properties
The Physicochemical profiling (LogD, Solubility, Caco-2 cell permeability) was performed as previously
described.8 Cell viability was performed as described below.
Table S2. Pharmacokinetic Properties
Compound Structure logD, Solubility, Rat hepsa Human mics b

Series [1] can be described thus: Intrinsic clearance in human microsomes. Format: in vitro ADME. The conditions noted are these: read-out: Human mics: intrinsic clearance in human microsomes. How it is done: All compounds (2–11, 25–29) were screened for their logD and solubility at pH 7.4 and for their intrinsic clearance in rat hepatocytes and human microsomes (Table S2). […] Replacing the basic amine side chain to a methyl substituent in the quinazolines (25–29) still retained good solubility (134 to over 1000 μM) but increased clearance in both rat hepatocytes and human microsomes. The logD was low for compounds with a basic amine side chain (2–11) and increased slightly when the amine was replaced with a methyl (25–29). As expected, additional substituents also affected the logD with the chloro-substituents increasing logD the most.
a Intrinsic clearance in rat hepatocytes ((μL/min)/10^6 cells).b Intrinsic clearance in human microsomes (μL/min/mg). […]

As to `Cc1cc(C)c2nc(Nc3nc(C)cc(C)n3)nc(C)c2c1` [Compound 27, N-(4,6-Dimethylpyrimidin-2-yl)-4,6,8-trimethylquinazolin-2-amine], the dissociation constant Kd on Pu24T c-MYC G4 structure is 0.8 ± 0.1 µM. Also, the “increase in thermal stability (ΔTm)” value with c-MYC Pu22 G4 DNA (compound 8 μM) was determined as 12 °C. Also, the pH-dependent lipophilicity (logD) in “logD at pH 7.4” was 2.9. Besides, in series [1], the microsomal CLint worked out at 140 µL/min/mg.
Turning to `Cc1cc(C)c2nc(Nc3nc(C)cc(NCCCN(C)C)n3)nc(C)c2c1` [Compound 5, N4-(3-(Dimethylamino)propyl)-6-methyl-N2-(4,6,8-trimethylquinazolin-2-yl)pyrimidine-2,4-diamine], binding on Pu24T c-MYC G4 structure was characterised by a dissociation constant (Kd) of 0.05 ± 0.004 µM. The “increased thermal stability (ΔTm)” value in the series with c-MYC Pu22 G4 DNA is 20 °C. Further, the log distribution coefficient (logD) in the series “logD at pH 7.4” is 0.6. The microsomal CLint in series [1] was under 3 µL/min/mg.
`Cc1cc(NCCCN(C)C)nc(Nc2ncc3ccccc3n2)n1` [Compound 2, N4-(3-(Dimethylamino)propyl)-6-methyl-N2-(quinazolin-2-yl)pyrimidine-2,4-diamine] had a dissociation constant Kd at Pu24T c-MYC G4 structure of 1.4 ± 0.3 µM. In addition, the “increased thermal stability (ΔTm)” value in the series on c-MYC Pu22 G4 DNA came to 7.5 °C. For the same molecule, the logD in “logD at pH 7.4” was -0.1. In addition, the microsomal CLint in series [1] was under 3 µL/min/mg.
